Laboratory results as given in patent US12643881B2, “Bicyclic amine CDK12 inhibitors” (Incyte Corporation, priority 2021, dated 2026).

Target: T1, CDK12 complexed with Cyclin K (Homo sapiens, UniProt Q9NYV4)
T1 construct: GST (N)
Assay: CDK Enzymatic Assays (HTRF, LANCE Ultra kinase assay), Example A1
Assay type: biochemical
Conditions: enzyme pre-incubated with compounds for 60 minutes prior to addition of ATP (1 mM final) and Ulight-peptide; reaction 60-90 minutes at room temperature
Excerpt: Example A1. CDK Enzymatic Assays
The following activity of the CDK enzymes in complex with their respective cyclins we assayed: CDK1 complexed with Cyclin B1; CDK2 complexed with Cyclin E1; CDK4 complexed with Cyclin D1; CDK6 complexed with Cyclin D1; CDK6 complexed with Cyclin D3; CDK9 complexed with Cyclin T1; CDK7 complexed with Cyclin H/MAT1; CDK2 complexed with Cyclin A2; CDK5 complexed with p35; CDK12 complexed with Cyclin K; CDK13 complexed with Cyclin K. These in vitro enzyme activity are assayed using homogeneous time-resolved energy transfer (HTRF), which measures phosphorylation of a peptide substrate. The LANCER Ultra kinase assay (PerkinElmer) uses a ULight™-labeled EIF4E-binding protein 1 (THR37/46) peptide (DYSTTPGGTLFSTTPGTRI (SEQ ID NO: 1)) substrate and a Europium-labeled anti-phospho-4E-BP1 antibody (CDK2, CDK1, CDK4, CDK6, CDK9, CDK12, CDK13) or ULight™-labeled Myelin Basic Protein peptide (VTPRTPPP (SEQ ID NO: 2)) substrate and a Europium-labeled anti-phospho-MBP antibody (CDK7). Each CDK enzyme activity assays utilized human CDK co-expressed as N-terminal GST-tagged protein with its full length cyclin partner using a baculovirus expression system.
Enzyme was pre-incubated with compounds for 30 minutes (CDK1,2,4,6,9) or 60 minutes (CDK7, CDK12, CDK13) prior to addition of ATP and Ulight-peptide (1 mM and 50 nM final, respectively), in assay buffer containing 50 mM HEPES pH 7.5, 1 mM EGTA, 10 mM MgCl2, 2 mM DTT, 0.05 mg/mL BSA, and 0.01% Tween 20. The reaction was then incubated for 60-90 minutes at room temperature. The reactions were stopped by the addition of EDTA and Europium labeled antibody, for a final concentration of 15 mM and 1.0-1.5 nM, respectively. HTRF signals were read after 15-120 minutes. A ratio of fluorescence transferred to the labeled substrate (665 nm) relative to fluorescence of the Europium donor (620 nm) represents the extent of phosphorylation. Ratios for treated wells were normalized to DMSO only (100% activity) and no enzyme (0% activity) controls. Normalized data was analyzed using a three or four parameter dose response curve to determine IC50 for each compound and are shown in Table A. Control reference inhibitors were included on each plate.

T1 sequence (Q9NYV4 whole entry): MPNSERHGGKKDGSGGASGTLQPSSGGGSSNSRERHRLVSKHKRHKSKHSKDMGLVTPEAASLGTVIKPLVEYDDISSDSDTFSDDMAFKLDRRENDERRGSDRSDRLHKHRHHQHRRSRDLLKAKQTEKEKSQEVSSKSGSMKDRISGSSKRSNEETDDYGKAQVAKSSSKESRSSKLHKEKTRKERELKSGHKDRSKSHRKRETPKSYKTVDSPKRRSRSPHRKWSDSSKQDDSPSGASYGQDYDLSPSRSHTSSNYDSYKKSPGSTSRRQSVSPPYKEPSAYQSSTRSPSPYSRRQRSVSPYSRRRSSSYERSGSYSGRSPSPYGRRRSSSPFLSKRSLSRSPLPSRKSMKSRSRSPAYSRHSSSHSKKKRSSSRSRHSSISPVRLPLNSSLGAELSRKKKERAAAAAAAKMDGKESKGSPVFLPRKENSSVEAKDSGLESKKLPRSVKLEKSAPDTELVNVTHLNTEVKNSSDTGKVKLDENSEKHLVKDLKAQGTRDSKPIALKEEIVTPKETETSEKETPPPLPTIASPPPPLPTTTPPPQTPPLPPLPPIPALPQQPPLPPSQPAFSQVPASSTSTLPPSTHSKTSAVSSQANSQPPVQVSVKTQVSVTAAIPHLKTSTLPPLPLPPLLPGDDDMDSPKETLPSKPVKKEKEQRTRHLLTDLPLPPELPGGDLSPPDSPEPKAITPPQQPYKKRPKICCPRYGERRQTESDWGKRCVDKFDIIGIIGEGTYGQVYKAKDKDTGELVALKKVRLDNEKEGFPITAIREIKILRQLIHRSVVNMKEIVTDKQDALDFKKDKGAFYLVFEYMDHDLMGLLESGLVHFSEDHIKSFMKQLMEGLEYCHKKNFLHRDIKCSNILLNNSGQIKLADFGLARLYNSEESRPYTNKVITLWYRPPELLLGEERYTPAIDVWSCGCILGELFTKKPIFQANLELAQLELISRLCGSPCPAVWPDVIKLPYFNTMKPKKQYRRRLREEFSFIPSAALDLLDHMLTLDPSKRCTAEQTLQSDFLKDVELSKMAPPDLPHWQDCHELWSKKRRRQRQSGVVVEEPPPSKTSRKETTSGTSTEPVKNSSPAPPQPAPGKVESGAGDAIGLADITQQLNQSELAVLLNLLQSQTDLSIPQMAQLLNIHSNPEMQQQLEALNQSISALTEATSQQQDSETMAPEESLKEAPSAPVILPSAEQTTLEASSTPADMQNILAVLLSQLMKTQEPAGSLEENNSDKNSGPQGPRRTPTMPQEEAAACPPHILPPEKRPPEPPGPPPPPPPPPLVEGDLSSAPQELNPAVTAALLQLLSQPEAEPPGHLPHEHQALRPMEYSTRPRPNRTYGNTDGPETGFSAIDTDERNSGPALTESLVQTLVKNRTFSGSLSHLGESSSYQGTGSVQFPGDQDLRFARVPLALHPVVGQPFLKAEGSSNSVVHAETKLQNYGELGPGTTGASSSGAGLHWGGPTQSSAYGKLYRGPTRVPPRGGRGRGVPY
T1 sequence (O75909 whole entry partner): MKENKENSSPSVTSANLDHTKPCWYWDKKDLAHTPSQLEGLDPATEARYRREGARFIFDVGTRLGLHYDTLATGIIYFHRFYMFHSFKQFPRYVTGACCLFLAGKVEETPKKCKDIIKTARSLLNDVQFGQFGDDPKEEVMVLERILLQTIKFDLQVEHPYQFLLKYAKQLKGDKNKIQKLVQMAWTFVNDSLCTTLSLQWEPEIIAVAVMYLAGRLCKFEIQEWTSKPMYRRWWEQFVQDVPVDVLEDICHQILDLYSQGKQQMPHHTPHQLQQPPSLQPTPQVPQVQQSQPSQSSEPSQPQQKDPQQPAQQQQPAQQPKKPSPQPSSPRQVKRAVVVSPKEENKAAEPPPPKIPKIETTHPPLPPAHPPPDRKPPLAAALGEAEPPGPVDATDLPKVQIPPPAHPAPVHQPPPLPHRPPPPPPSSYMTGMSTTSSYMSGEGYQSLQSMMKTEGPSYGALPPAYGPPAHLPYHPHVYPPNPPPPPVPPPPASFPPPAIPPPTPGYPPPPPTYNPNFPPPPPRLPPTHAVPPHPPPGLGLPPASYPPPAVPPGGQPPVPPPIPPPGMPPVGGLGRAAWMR

SMILES | IC50
C=CC(=O)Nc1nn(C)c2cc(N3CCC[C@@H](Nc4ncc(C#N)c(OC)n4)C3)ncc12 [Example 1, (R)—N-(6-(3-((5-Cyano-4-methoxypyrimidin-2-yl)amino)piperidin-1-yl)-1-methyl-1H-pyrazolo[4,3-c]pyridin-3-yl)acrylamide] | < 50 nM
C=CC(=O)Nc1nn(C)c2cc(N3CC[C@@H](Nc4ncc(C#N)c(OC)n4)C3)ncc12 [Example 2, (R)—N-(6-(3-((5-Cyano-4-methoxypyrimidin-2-yl)amino)pyrrolidin-1-yl)-1-methyl-1H-pyrazolo[4,3-c]pyridin-3-yl)acrylamide] | < 50 nM
C=CC(=O)Nc1nc2c(N3CC[C@@H](Nc4ncc(C#N)c(OC)n4)C3)nccn2n1 [Example 3, (R)—N-(8-(3-((5-Cyano-4-methoxypyrimidin-2-yl)amino)pyrrolidin-1-yl)-[1,2,4]triazolo[1,5-a]pyrazin-2-yl)acrylamide] | < 50 nM
C=CC(=O)Nc1ccc2c(c1)C(=O)N([C@H]1CCC[C@@H](Nc3ncc(-c4ccc(OC)cc4)cn3)C1)C2 [Example 4, N-(2-((1S,3R)-3-((5-(4-Methoxyphenyl)pyrimidin-2-yl)amino)cyclohexyl)-3-oxoisoindolin-5-yl)acrylamide] | > 500 nM
C=CC(=O)Nc1ccc2c(c1)C(=O)N([C@H]1CCC[C@@H](Nc3ncc(C)c(C(F)(F)F)n3)C1)C2 [Example 5, N-(2-((1S,3R)-3-((5-Methyl-4-(trifluoromethyl)pyrimidin-2-yl)amino)cyclohexyl)-3-oxoisoindolin-5-yl)acrylamide] | < 50 nM
C=CC(=O)Nc1ccc2c(c1)C(=O)N([C@H]1CCC[C@@H](Nc3ncc(OC(F)F)cn3)C1)C2 [Example 6, N-(2-((1S,3R)-3-((5-(Difluoromethoxy)pyrimidin-2-yl)amino)cyclohexyl)-3-oxoisoindolin-5-yl)acrylamide] | < 50 nM
C=CC(=O)Nc1ccc2c(c1)C(=O)N([C@H]1CCC[C@@H](Nc3ncc(C=C)cn3)C1)C2 [Example 7, N-(3-Oxo-2-((1S,3R)-3-((5-vinylpyrimidin-2-yl)amino)cyclohexyl)isoindolin-5-yl)acrylamide] | < 50 nM
C=CC(=O)Nc1ccc2c(c1)C(=O)N([C@H]1CCC[C@@H](Nc3ncc(-c4cnn(C)c4)cn3)C1)C2 [Example 8, N-(2-((1S,3R)-3-((5-(1-Methyl-1H-pyrazol-4-yl)pyrimidin-2-yl)amino)cyclohexyl)-3-oxoisoindolin-5-yl)acrylamide] | > 500 nM
C=CC(=O)Nc1ccc2c(c1)C(=O)N([C@H]1CCC[C@@H](Nc3ncc(C#N)c(C)n3)C1)C2 [Example 9, N-(2-((1S,3R)-3-((5-Cyano-4-methylpyrimidin-2-yl)amino)cyclohexyl)-3-oxoisoindolin-5-yl)acrylamide] | < 50 nM
C=CC(=O)Nc1ccc2c(c1)C(=O)N([C@H]1CCC[C@@H](Nc3ncc(CC)cn3)C1)C2 [Example 10, N-(2-((1S,3R)-3-((5-Ethylpyrimidin-2-yl)amino)cyclohexyl)-3-oxoisoindolin-5-yl)acrylamide] | < 50 nM
C=CC(=O)Nc1ccc2c(c1)C(=O)N([C@H]1CCC[C@@H](Nc3ncc(C4CC4)cn3)C1)C2 [Example 11, N-(2-((1S,3R)-3-((5-Cyclopropylpyrimidin-2-yl)amino)cyclohexyl)-3-oxoisoindolin-5-yl)acrylamide] | 50 to 500 nM
C=CC(=O)Nc1ccc2c(c1)C(=O)N([C@H]1CCC[C@@H](Nc3ncc(C(C)C)cn3)C1)C2 [Example 12, N-(2-((1S,3R)-3-((5-Isopropylpyrimidin-2-yl)amino)cyclohexyl)-3-oxoisoindolin-5-yl)acrylamide] | < 50 nM
C=CC(=O)Nc1ccc2c(c1)C(=O)N([C@H]1CCC[C@@H](Nc3ncc(C)c(OC)n3)C1)C2 [Example 13, N-(2-((1S,3R)-3-((4-Methoxy-5-methylpyrimidin-2-yl)amino)cyclohexyl)-3-oxoisoindolin-5-yl)acrylamide] | 50 to 500 nM
C=CC(=O)Nc1c(C)nc2c(N3CCC[C@@H](Nc4ncc(C#N)c(OC)n4)C3)nccn12 [Example 14, (R)—N-(8-(3-((5-Cyano-4-methoxypyrimidin-2-yl)amino)piperidin-1-yl)-2-methylimidazo[1,2-a]pyrazin-3-yl)acrylamide] | < 50 nM
C=CC(=O)Nc1ccc2c(c1)C(=O)N([C@H]1CCC[C@@H](Nc3ccc(C#N)c(C)n3)C1)C2 [Example 15, N-(2-((1S,3R)-3-((5-Cyano-6-methylpyridin-2-yl)amino)cyclohexyl)-3-oxoisoindolin-5-yl)acrylamide] | > 500 nM
C=CC(=O)Nc1ccc2c(c1)C(=O)N([C@H]1CCC[C@@H](Nc3cc(C)c(C#N)cn3)C1)C2 [Example 16, N-(2-((1S,3R)-3-((5-Cyano-4-methylpyridin-2-yl)amino)cyclohexyl)-3-oxoisoindolin-5-yl)acrylamide] | 50 to 500 nM
C#Cc1cnc(N[C@@H]2CCC[C@H](N3Cc4ccc(NC(=O)C=C)cc4C3=O)C2)nc1 [Example 17, N-(2-((1S,3R)-3-((5-Ethynylpyrimidin-2-yl)amino)cyclohexyl)-3-oxoisoindolin-5-yl)acrylamide] | < 50 nM
C=CC(=O)Nc1ccc2c(c1)C(=O)N([C@H]1CCC[C@@H](Nc3cc(C(F)(F)F)c(C#N)cn3)C1)C2 [Example 18, N-(2-((1S,3R)-3-((5-Cyano-4-(trifluoromethyl)pyridin-2-yl)amino)cyclohexyl)-3-oxoisoindolin-5-yl)acrylamide] | < 50 nM
C=CC(=O)Nc1ccc2c(c1)C(=O)N([C@H]1CCC[C@@H](Nc3cc(C#N)c(C(F)(F)F)cn3)C1)C2 [Example 19, N-(2-((1S,3R)-3-((4-Cyano-5-(trifluoromethyl)pyridin-2-yl)amino)cyclohexyl)-3-oxoisoindolin-5-yl)acrylamide] | < 50 nM
C=CC(=O)Nc1nn(C)c2c(N3CC[C@@H](Nc4ncc(C#N)cn4)C3)cccc12 [Example 20, (R)—N-(7-(3-((5-Cyanopyrimidin-2-yl)amino)pyrrolidin-1-yl)-1-methyl-1H-indazol-3-yl)acrylamide] | 50 to 500 nM
C=CC(=O)Nc1nn(C)c2cc(N3CC[C@@H](Nc4ncc(C#N)c(OC)n4)C3)ccc12 [Example 21, (R)—N-(6-(3-((5-Cyano-4-methoxypyrimidin-2-yl)amino)pyrrolidin-1-yl)-1-methyl-1H-indazol-3-yl)acrylamide] | 50 to 500 nM
C=CC(=O)Nc1nc2cccc(N3CCC[C@@H](Nc4ncc(C#N)c(OC)n4)C3)n2n1 [Example 22, (R)—N-(5-(3-((5-Cyano-4-methoxypyrimidin-2-yl)amino)piperidin-1-yl)-[1,2,4]triazolo[1,5-a]pyridin-2-yl)acrylamide] | < 50 nM
C=CC(=O)Nc1nc2cccc(N3CC[C@@H](Nc4ncc(C#N)c(OC)n4)C3)n2n1 [Example 23, (R)—N-(5-(3-((5-Cyano-4-methoxypyrimidin-2-yl)amino)pyrrolidin-1-yl)-[1,2,4]triazolo[1,5-a]pyridin-2-yl)acrylamide] | < 50 nM
C=CC(=O)Nc1cccc2c1cnn2[C@H]1CCC[C@@H](Nc2ncc(C#N)c(OC)n2)C1 [Example 24, N-(1-((1S,3R)-3-((5-Cyano-4-methoxypyrimidin-2-yl)amino)cyclohexyl)-1H-indazol-4-yl)acrylamide] | < 50 nM
C=CC(=O)Nc1ccc2c(cnn2[C@H]2CCC[C@@H](Nc3ncc(C#N)c(OC)n3)C2)c1 [Example 25, N-(1-((1S,3R)-3-((5-Cyano-4-methoxypyrimidin-2-yl)amino)cyclohexyl)-1H-indazol-5-yl)acrylamide] | 50 to 500 nM
C=CC(=O)Nc1ccc2c(ccn2[C@H]2CCC[C@@H](Nc3ncc(C#N)c(OC)n3)C2)c1 [Example 26, N-(1-((1S,3R)-3-((5-Cyano-4-methoxypyrimidin-2-yl)amino)cyclohexyl)-1H-indol-5-yl)acrylamide] | > 500 nM
C=CC(=O)Nc1cccc2c1ncn2[C@H]1CCC[C@@H](Nc2ncc(C#N)c(OC)n2)C1 [Example 27, N-(1-((1S,3R)-3-((5-Cyano-4-methoxypyrimidin-2-yl)amino)cyclohexyl)-1H-benzo[d]imidazol-4-yl)acrylamide] | < 50 nM
C=CC(=O)Nc1cccc2c(N3CCC[C@@H](Nc4ncc(C#N)c(OC)n4)C3)noc12 [Example 28, (R)—N-(3-(3-((5-Cyano-4-methoxypyrimidin-2-yl)amino)piperidin-1-yl)benzo[d]isoxazol-7-yl)acrylamide] | < 50 nM
C=CC(=O)Nc1ccc2c(c1)C(=O)N([C@H]1CCC[C@@H](Nc3ncc(C(F)(F)F)s3)C1)C2 [Example 29, N-(3-Oxo-2-((1S,3R)-3-((5-(trifluoromethyl)thiazol-2-yl)amino)cyclohexyl)isoindolin-5-yl)acrylamide] | < 50 nM
